Experimental data reported in US20160300038A1, “METHODS OF N[…] DRUG CONCENTRATIONS IN URINE USING PATIENT […] DATA AND TESTING FOR POTENTIAL NON-[…] A CHRONIC DRUG TREATMENT REGIMEN” (Ameritox, Ltd., priority 2015, published 2016).

Experiment: Urine drug testing (UDT): drug concentration of the primary metabolite (parent drug) in patient urine, e.g. LC/MSMS
Description: Non-limiting examples for determining the amount of a drug in fluid of a subject include fluorescence polarization immunoassay (“FPIA,” Abbott Diagnostics), mass spectrometry (MS), gas chromatography-mass spectrometry (GC-MS-MS), liquid chromatography-mass spectrometry (LC-MS-MS), liquid chromatography—exact mass mass spectrometry (LC/QTOF) and the like. […] In one embodiment, a raw level, amount, or concentration of a drug in urine of a subject is measured and reported as a ratio, percent, or in relationship to the amount of fluid. The amount of fluid may be expressed as a unit volume, for example, in L, mL, μL, pL, ounce, etc. In one embodiment, the raw amount of a drug in Urine of a subject may be expressed as an absolute level or value, for example, in g, mg, μg, ng, pg, etc.
Then urine from the subject is tested. […] These values are within normal ranges so the data were processed.
Of the patients considered in this sample 70% were females and 30% were males.

In the case of `Cc1nnc2n1-c1ccc(Cl)cc1C(c1ccccc1)=NC2` [alprazolam], the “average urine drug concentration” value (Example 7, fifty randomly selected alprazolam patients, average daily dosage 2 mg) was 155 ng/m L and the “average urine drug concentration” value (alprazolam model population, approximately 280,000 patient results, average daily dosage 3 mg) was 375 ng/mL.
For `COc1ccc2c3c1O[C@H]1C(=O)CC[C@H]4[C@@H](C2)N(C)CC[C@]314` [hydrocodone], the “average urine drug concentration” value (hydrocodone model population, approximately 100,000 patient results, average daily dosage 30 mg) was 1784 ng/m L.
With `O=C1Nc2ccc(Cl)cc2C(c2ccccc2)=NC1O` (stereo not drawn) [oxazepam] the “average urine drug concentration” value (Example 8, fifty patients prescribed diazepam or temazepam (oxazepam as metabolite), average daily dosage 17 mg) was 1096 ng/m L and the “average oxazepam urine drug concentration” value (oxazepam model population, approximately 207,000 patient results, prescribed diazepam and temazepam, average daily dosage 23 mg) was 1819 ng/m L.
In the case of `COc1ccc2c3c1O[C@H]1C(=O)CC[C@@]4(O)[C@@H](C2)N(C)CC[C@]314` [oxycodone], the “average urine drug concentration” value (oxycodone model population, approximately 47,000 patient results, average daily dosage 36 mg) was 2120 ng/m L.
